From patent US11357748B2, “Methods for treating mendelian disorders of the epigenetic machinery” (THE JOHNS HOPKINS UNIVERSITY, priority 2014, dated 2022)
Entries after “also recorded” stand apart in the source; their conditions may differ.

Columns and labels:
Klf10 expression = experiment: Real-time PCR of Kmt2d target gene Klf10 in spleen cells; assay type: in vivo, mouse; details: AR-42 treatment (10 mg/kg/day); FIG. 26
Experimental: Real-time PCR was performed using Kmt2d-specific probes for exons 20 and 52 (Mm_02600438 and Mm_01717664, respectively) from TaqMan® Gene Expression Assays (Life Technologies, Carlsbad, Calif.). For a comparison of transfection efficiencies for indicator constructs in transient transfection studies, real-time PCR was performed using SYBR Green Real-Time PCR Master Mix (Life Technologies, Carlsbad, Calif.) and primers IND-F-([…]; SEQ ID NO: 5) and IND-R-([…]; SEQ ID NO: 6) that are specific for the H3K4 methylation indicator. For expression analysis for KMT2D target gene KLF10, real-time PCR was performed using Klfl0-specific expression assay (Mm00449812_m1) from TaqMan® Gene Expression Assays (Life Technologies, Carlsbad, Calif.).

[1] = tested on: H3K4 trimethylation activity in Kmt2d+/βGeo MEFs; experiment: H3K4me3 indicator in murine embryonic fibroblasts (MEFs) from Kmt2d+/βGeo and Kmt2d+/+ mice; assay type: cell-based, mouse; details: FIG. 18H
Text: An H3K4 trimethylation reporter was also created (FIG. 5B). This reporter is based on the H3 tail on one end and the TBP associated factor III (TAFIII) […] on the other end; the TAFIII […] only identifies and binds to trimethylated K4 on H3. When the H3K4 site gets trimethylated, the TAFIII […] can bind to the modified H3 tail and bring the two parts of the separated GFP in close proximity. The activity of the epigenetic modification system can be quantified through fluorescence.
Epigenetic reporter alleles were synthesized (OriGene, Rockville, Md.) using published sequences for component elements (Baird et al. (1999) Proc. Natl. Acad. Sci. 96:11241-6; Souslova et al. (2007) BMC Biotechnol. 7:37). Single nucleotide mutations were created using the QuickChange Lightening kit (Agilent Technologies Inc, Santa Clara, Calif.). For H4ac indicator, K5R, K8R, K12R, K16R and K20R (MUT indicator) were introduced. For H3K4me3 indicator, K4Q and D890A/W891A and M882A (three separate constructs) were introduced. […] FACS data were analyzed using FlowJo (Tree Star Inc, Ashland, Oreg.). […]
Epigenetic reporter systems were created that monitor either H4 acetylation or H3K4 trimethylation machinery activity in an effort to determine whether there is an ongoing activity deficiency in cells from Kmt2d^+/βGeo mice (FIG. 18A). Both reporter alleles encode halves of green fluorescent protein separated by a flexible linker region (Baird et al. (1999) Proc. Natl. Acad. Sci. 96: 11241-6) with a histone tail and a histone reader at the N- and C-termini, respectively. When the histone tail corresponding to either H4 or H3 is modified by acetylation or methylation, respectively, GFP structure and function are reconstituted, as detected by a fluorescent readout (FIG. 18B). The acetyl reporter protein quantifies the activity of the acetylation machinery (acetylation of H4 specifically at sites K5, K8, K12, and K16) and comprises an H4 tail (residues 1-30) on one end and a TATA binding protein (TBP)-associated factor II (TAFII) bromodomain on the other end (FIG. 18A). […]

## CC(C)[C@H](C(=O)Nc1ccc(C(=O)NO)cc1)c1ccccc1 [AR-42, (S)—N-hydroxy-4-(3-methyl-2-phenylbutanamido)benzamide]
Klf10 expression
  Klf10 expression in spleen cells of Kmt2d+/βGeo mice: normalization of expression of Klf10; also recorded: normalized
[1]; Kmt2d+/βGeo MEFs, 22A, 23
  H3K4 trimethylation activity in Kmt2d+/βGeo cells upon treatment: enhanced
[1]; both genotypes (Kmt2d+/+ and Kmt2d+/βGeo)
  H3K4me3 indicator activity in MEFs: dose-dependent response
